Data set [1] in a line: In vitro metabolism with mouse liver post-mitochondrial supernatant and NADPH. Format: in vitro ADME. As for the experimental part:
Several female ND4 Swiss Webster mice were euthanized by carbon dioxide inhalation and the livers excised and rinsed with ice cold phosphate buffered saline (pH 7.4). The livers were minced, gently homogenized in 50 mM phosphate buffer (pH 7.4) with a Dounce homogenizer, and centrifuged at 9600× g for 20 min. The post-mitochondrial supernatant was kept, glycerol added to 20%, and frozen at −70° C in 1.0 ml aliquots until used. For each incubation, 1.0 ml of a 1.0 mg/ml drug solution was added to 3.0 ml of 50 mM phosphate buffer (pH 7.4), 1.0 ml of 2 mg/ml NADPH in 50 mM phosphate (pH 7.4), and 1.0 ml of the post-mitochondrial supernatant. Five hundred μl of each incubate was then immediately transferred to an ice-cold tube to provide the zero-time sample, and addition 500 μl aliquots removed to ice-cold tubes at 8, 15, 30, and 60 min. The samples were then extracted, and analyzed by HPLC as described in section 7.1. Control incubations were also performed where drug or post-10 mitochondrial supernatant was omitted. […] Peaks in the CNI compound incubations which increased over time, and were not present in control samples lacking the enzyme preparation were treated as putative metabolites.

Data set [2] deals with T1, recombinant RT (p51/p66 heterodimer) (Human immunodeficiency virus type 1 group M subtype B, UniProt P04585).
T1 construct: recombinant MA or RT (a p51/p66 heterodimer)
Description: Binding of [14C]-CNI-H0294 to recombinant RT in solution (immunoprecipitation). On the set-up: species or system HIV-1. To be noted: 20 nmol [14C]-CNI-H0294 with 0.28 nmol RT. As for the experimental part: (§1) Twenty nmol of [^14C]-CNI-HO294 were mixed with 0.28 nmol of recombinant MA or RT (a p51/p66 heterodimer) in 40 μl of binding buffer. Samples were incubated for 2 h at 37° C. in the presence or absence of 200 nmol of unlabeled CNI-H0294. MA and RT proteins were immunoprecipitated using protein G agarose and sheep polyclonal anti-MA (αMA) or rabbit anti-RT (αRT) sera, respectively. Pre-immune sera (PI) was used as control. Bound material was eluted from protein G using 0.1 M glycine buffer [pH 2.8] and the radioactivity in the eluate was quantified in a scintillation counter.
Recombinant RT (0.2 μM) was incubated with 3.3 μM of [^14C ]-labeled CNI-H0294 and increasing concentrations of unlabeled (cold) CNI-3094. The amount of [^14C]-CNI-H0294 that bound to RT was measured as in FIG. 11.
(§2) 0.28 nanomoles of recombinant MA or RT [p66/p51 ] dimer were mixed with 20 nmol of [^14C] CNI-HO294 (specific activity 5×10^4 cpm/nmol) and incubated 2 hr at room temperature in 40 μl of binding buffer (PBS supplemented with 1% BSA, 0.1% Tween 20, 1 μg/ml leupeptin, 1 μg/ml aprotinin, 1 mM PMSF). Sheep anti-MA or rabbit anti-RT sera (both obtained from NIH AIDS Research and Reference Reagent Program) or pre-immune control sera were then added (at 1:100 dilution) and incubation continued for another 1 hr at room temperature. Immune complexes were precipitated with protein G-agarose, washed, and then eluted with 0.1 M glycine, pH 2.8. Radioactivity of the eluate was measured in a scintillation counter.

The target of a further data set is T2, recombinant MA (Human immunodeficiency virus type 1 group M subtype B, UniProt P04591).
T2 construct: 0.28 nanomoles of recombinant MA or RT [p66/p51 ] dimer
Put plainly: Binding of [14C]-CNI-H0294 to recombinant MA in solution (immunoprecipitation). On the set-up: species or system HIV-1. As for the experimental part: as §1, §2

Data set [3] relates to nucleoplasmin-coated gold particles. Description: Nuclear import of nucleoplasmin-coated gold particles.
Data set [4] relates to BSA with conjugated NLS peptides that mimic the NLS of SV40 large T antigen. Description: Nuclear import of BSA with conjugated NLS peptides of SV40 large T antigen.
The test system of data set [5] is macrophage-tropic strain of HIV-1. Description: Inhibition of HIV-1 replication in peripheral blood-derived macrophages (IC50, RT or p24 in medium). Format: cell-based. To be noted: Human immunodeficiency virus 1, Macrophage, 120 h; 50% inhibition of viral growth; RT or p24 in medium about day 5 or 6 post-infection. As for the experimental part: A quantitative measurement of the activity of the compounds of the invention to block the replication of HIV-1 in non-dividing cells can be determined by culture of a macrophage-tropic strain of HIV-1 on peripheral blood-derived macrophages. The cells are cultured for 5-6 days prior to infection in a medium consisting of DMEM supplemented with 10% type A/B human serum and 200 U/ml Macrophage Colony Stimulating Factor, with half the medium changed after 3 days, to reach a density of about 10^6 cells per 5 ml well. A macrophage-tropic viral stock may be grown on these cells. The concentration of infectious particles in the stock is estimated by measurement of p24 antigen concentration.
To test the effect of compounds of the invention on HIV-1 infection in the above-described culture system, the medium is removed and replaced with medium containing HIV-1 at a concentration of 1 ng of p24 (10^4 TCID50/ml (TCID=tissue culture infectious doses)) and a known concentration of the compound of the invention (the inhibitor). After 24 hours, the cultures are washed to remove non-adherent virus and the culture is re-fed with medium containing the inhibitor at the desired concentration. The amount of replication of HIV-1 is estimated by an assay of the reverse transcriptase activity or by an assay of the concentration of p24 antigen in the culture medium every 2-3 days throughout the post-infection period. In a preferred embodiment the anti-HIV potency of the candidate drug is measured by comparison of the concentration of reverse transcriptase (RT) or of p24 antigen in the medium of the treated and control cultures at the time of the peak of these values in non-treated control cultures, that is about day 5 or 6 post-infection. Repetition at various levels of inhibitor allows for the calculation of the concentration of inhibitor that achieves 50% inhibition of viral growth, IC50. Table I discloses the IC50 of various inhibitors.

As for `CC(=O)c1cc(Nc2cc(C)[n+](C)c(N)n2)cc(C(C)=O)c1` [CNI-0294, 2-Amino-4-(3,5-diacetylphenyl)amino-1,6-dimethylpyrimidinium chloride], the metabolites produced result in data set [1] is “three minor and one major metabolite”. For the same compound, the “metabolic conversion (drug altered, as judged by peak area)” value in data set [1] (60 min incubation) is given as 43.5%. The “CNI-H0294 immunoprecipitable with RT” value in data set [2] is on record as roughly 0.34 nmol. In data set [2] (specific activity 50,000 cpm/nmol), the “radioactivity immunoprecipitable with RT” value was “about 17,000 cpm”. Further, the “binding to recombinant MA” value on recombinant MA is reported as “No binding was observed”. The “block of nuclear import of nucleoplasmin-coated gold particles” value in data set [3] is reported as “did not block”. In data set [4], the “block of nuclear import of BSA with conjugated NLS peptides” value is “did not block”.

The IC50 is the concentration at which inhibition is half-maximal. A higher IC50 goes with weaker potency. In data set [5], `CC(=O)c1cc(Nc2cc(C)[n+](C)c(N)n2)cc(C(C)=O)c1.[I-]` [Compound No. 2, 2-amino-4-(3,5-diacetylphenyl)amino-1,6-dimethylpyrimidinium iodide] registered an IC50 of 1 nM.

These data come from patent US6649797B2, “Compounds and methods of use to treat infectious diseases” (The Picower Institute for Medical Research, priority 1996, dated 2003).
